Experimental data: US20060004028A1, “Novel PARP inhibitor” (MOCHIDA PHARMACEUTICAL CO., LTD., priority 2002, published 2006)

`COc1ccc2cc(C3NC(=O)c4cccc5c4N3CCC5=O)ccc2c1` (stereo not drawn) [Example 47, 3-(6-methoxynaphthalene-2-yl)-6,7-dihydro-3H,5H-pyrido[3,2,1-ij]quinazoline-1,7(2H)-dione] showed a melting point of 191.4 to 195.5 °C. `CN(C)c1ccc(C2NC(=O)c3cccc4c3N2CCC4=O)cc1` (stereo not drawn) [Example 48, 3-(4-N,N-dimethylaminophenyl)-6,7-dihydro-3H,5H-pyrido[3,2,1-ij]quinazoline-1,7(2H)-dione] gave a melting point of 198.7 to 202.6 °C. With `COc1ccc(C2NC(=O)c3cccc4c3N2CCC4=O)c(C)c1` (stereo not drawn) [Example 49, 3-(2-methyl-4-methoxyphenyl)-6,7-dihydro-3H,5H-pyrido[3,2,1-ij]quinazoline-1,7(2H)-dione] the melting point was 100.2 to 101.1 °C. With `COc1ccc(C2NC(=O)c3cc(OC(F)(F)F)cc4c3N2CCC4=NO)cc1` (stereo not drawn) [Example 50, 7-hydroxyimino-3-(4-methoxyphenyl)-9-trifluoromethoxy-6,7-dihydro-3H,5H-pyrido[3,2,1-ij]quinazoline-1(2H)-one] the melting point was 232.7 to 234.3 °C. Work on `CON=C1CCN2c3c(cc(F)cc31)C(=O)NC2c1ccc(OC)cc1` (stereo not drawn) [Example 51, 9-fluoro-7-methoxyimino-3-(4-methoxyphenyl)-6,7-dihydro-3H,5H-pyrido[3,2,1-ij]quinazoline-1(2H)-one] yielded a melting point of 200.1 to 202.9 °C. `COc1ccc(C2NC(=O)c3ccc(Cl)c4c3N2CCC4=NO)cc1` (stereo not drawn) [Example 52, 8-chloro-7-hydroxyimino-3-(4-methoxyphenyl)-6,7-dihydro-3H,5H-pyrido[3,2,1-ij]quinazoline-1(2H)-one] gave a melting point of 132.9 to 133.4 °C. Molecule `CON=C1CCN2c3c(cccc31)C(=O)NC2c1ccc(OCCCN(C)C)cc1` (stereo not drawn) [Example 53, 7-methoxyimino-3-[4-(3-N,N-dimethylaminopropoxy)phenyl]-6,7-dihydro-3H,5H-pyrido[3,2,1-ij]quinazoline-1(2H)-one] has a melting point of 164.3 to 167 °C. `CON=C1CCN2c3c(cccc31)C(=O)NC2c1ccc(OC)c(Br)c1` (stereo not drawn) [Example 54, (3-bromo-4-methoxyphenyl)-7-methoxyimino-6,7-dihydro-3H,5H-pyrido[3,2,1-ij]quinazoline-1(2H)-one] showed a melting point of 218.7 to 221.7 °C. With `CON=C1CCN2c3c(cccc31)C(=O)NC2c1ccc(OC)c(O)c1` (stereo not drawn) [Example 55, 3-(3-hydroxy-4-methoxyphenyl)-7-methoxyimino-6,7-dihydro-3H,5H-pyrido[3,2,1-ij]quinazoline-1(2H)-one] the melting point was 185.3 to 189.8 °C. `COc1cc(C2NC(=O)c3cccc4c3N2CCC4=NO)cc(Br)c1OC` (stereo not drawn) [Example 56, 3-(3-bromo-4,5-dimethoxyphenyl)-7-hydroxyimino-6,7-dihydro-3H,5H-pyrido[3,2,1-ij]quinazoline-1(2H)-one] showed a melting point of 133.9 to 146.8 °C. For `COc1ccc(C2NC(=O)c3cccc4c3N2CCC4=NO)cc1C` (stereo not drawn) [Example 57, 7-hydroxyimino-3-(3-methyl-4-methoxyphenyl)-6,7-dihydro-3H,5H-pyrido[3,2,1-ij]quinazoline-1(2H)-one], the melting point was 236 to 243.3 °C. For `CON=C1CCN2c3c(cccc31)C(=O)NC2c1ccc(-n2ccnc2)cc1` (stereo not drawn) [Example 58, 3-[4-(imidazole-1-yl)phenyl]-7-methoxyimino-6,7-dihydro-3H,5H-pyrido[3,2,1-ij]quinazoline-1(2H)-one], the melting point was 246.3 °C (dec.). `CCOC(=O)COc1ccc(C2NC(=O)c3cccc4c3N2CCC4=NO)cc1` (stereo not drawn) [Example 59, 3-(4-ethoxycarbonylmethoxyphenyl)-7-hydroxyimino-6,7-dihydro-3H,5H-pyrido[3,2,1-ij]quinazoline-1(2H)-one] showed a melting point of 198.6 to 203.3 °C. Work on `O=C1NC(c2ccc(OCCO)cc2)N2CCC(=NO)c3cccc1c32` (stereo not drawn) [Example 60, 7-hydroxyimino-3-(4-hydroxyethoxyphenyl)-6,7-dihydro-3H,5H-pyrido[3,2,1-ij]quinazoline-1(2H)-one] yielded a melting point of 183.9 to 186.3 °C. In the case of `COc1cc(C2NC(=O)c3cccc4c3N2CCC4=NO)ccc1O` (stereo not drawn) [Example 61, 7-hydroxyimino-3-(4-hydroxy-3-methoxyphenyl)-6,7-dihydro-3H,5H-pyrido[3,2,1-ij]quinazoline-1(2H)one], the melting point is reported as 174.4 to 189.3 °C. `CON=C1CCN2c3c(cccc31)C(=O)NC2c1ccc(C(F)(F)F)cc1` (stereo not drawn) [Example 62, 7-methoxyimino-3-(4-trifluoromethylphenyl)-6,7-dihydro-3H,5H-pyrido[3,2,1-ij]quinazoline-1(2H)-one] gave a melting point of 199.4 to 207.2 °C. For `COc1cc(C2NC(=O)c3cccc4c3N2CCC4=NO)ccc1F` (stereo not drawn) [Example 63, 3-(4-fluoro-3-methoxyphenyl)-7-hydroxyimino-6,7-dihydro-3H,5H-pyrido[3,2,1-ij]quinazoline-1(2H)-one], the melting point was 245.4 to 246.6 °C. `CON=C1CCN2c3c(cccc31)C(=O)NC2c1ccc(OC(C)C)cc1` (stereo not drawn) [Example 64, 3-(4-isopropoxyphenyl)-7-methoxyimino-6,7-dihydro-3H,5H-pyrido[3,2,1-ij]quinazoline-1(2H)-one] showed a melting point of 167.4 to 168.9 °C. `CON=C1CCN2c3c(cccc31)C(=O)NC2c1cccnc1` (stereo not drawn) [Example 67, 7-methoxyimino-3-(3-pyridyl)-6,7-dihydro-3H,5H-pyrido[3,2,1-ij]quinazoline-1(2H)-one] showed a melting point of 178.6 to 185.9 °C. `CON=C1CCN2c3c(cccc31)C(=O)NC2Cc1ccc(OC)cc1` (stereo not drawn) [Example 69, 7-methoxyimino-3-(4-methoxyphenyl)methyl-6,7-dihydro-3H,5H-pyrido[3,2,1-ij]quinazoline-1(2H)-one] showed a melting point of 190 to 195.9 °C. For `COc1ccc(C2NC(=O)c3cccc4c3N2CCC4=NO)cc1Cl` (stereo not drawn) [Example 70, 3-(3-chloro-4-methoxyphenyl)-7-hydroxyimino-3-6,7-dihydro-3H,5H-pyrido[3,2,1-ij]quinazoline-1(2H)-one], the melting point was 220 °C (dec.). With `CON=C1CCN2c3c(cccc31)C(=O)NC2c1ccc([N+](=O)[O-])cc1` (stereo not drawn) [Example 71, 7-methoxyimino-3-(4-nitrophenyl)-6,7-dihydro-3H,5H-pyrido[3,2,1-ij]quinazoline-1(2H)-one] the melting point was 112.9 to 116.4 °C. With `O=C1NC(c2ccc([N+](=O)[O-])cc2)N2CCC(=NO)c3cccc1c32` (stereo not drawn) [Example 73, 7-hydroxyimino-3-(4-nitrophenyl)-6,7-dihydro-3H,5H-pyrido[3,2,1-ij]quinazoline-1(2H)-one] the melting point was 220 to 224.7 °C. With `N#Cc1ccc(C2NC(=O)c3cccc4c3N2CCC4=NO)cc1` (stereo not drawn) [Example 74, 3-(4-cyanophenyl)-7-hydroxyimino-6,7-dihydro-3H,5H-pyrido[3,2,1-ij]quinazoline-1(2H)-one] the melting point was > 250 °C. With `O=C1NC(c2ccc(F)c(F)c2)N2CCC(=NO)c3cccc1c32` (stereo not drawn) [Example 75, 3-(3,4-difluorophenyl)-7-hydroxyimino-6,7-dihydro-3H,5H-pyrido[3,2,1-ij]quinazoline-1(2H)-one] the melting point was 218.4 to 222.3 °C. Work on `O=C1NC(c2ccc(F)cc2)N2CCC(=NO)c3cccc1c32` (stereo not drawn) [Example 76, 3-(4-fluorophenyl)-7-hydroxyimino-6,7-dihydro-3H,5H-pyrido[3,2,1-ij]quinazoline-1(2H)-one] yielded a melting point of 247.1 to 252.3 °C. Work on `Cc1ccc(C2NC(=O)c3cccc4c3N2CCC4=NO)cc1` (stereo not drawn) [Example 77, 7-hydroxyimino-3-(4-methylphenyl)-6,7-dihydro-3H,5H-pyrido[3,2,1-ij]quinazoline-1(2H)-one] yielded a melting point of 215.4 to 219 °C. In the case of `O=C1NC(c2ccc(Cl)cc2)N2CCC(=NO)c3cccc1c32` (stereo not drawn) [Example 78], the melting point is reported as 210.6 to 217.2 °C. In the case of `O=C1NC(c2ccc(Br)cc2)N2CCC(=NO)c3cccc1c32` (stereo not drawn) [Example 79, 3-(4-bromophenyl)-7-hydroxyimino-6,7-dihydro-3H,5H-pyrido[3,2,1-ij]quinazoline-1(2H)-one], the melting point is reported as 230 to 236.9 °C. Molecule `COc1ccc(C2NC(=O)c3cccc4c3N2CCC4)cc1` (stereo not drawn) [Example 103, 3-(4-methoxyphenyl)-6,7-dihydro-3H,5H-pyrido[3,2,1-ij]quinazoline-1(2H)-one] has a melting point of 143.3 to 154.6 °C. For `NC1CCN2c3c(cccc31)C(=O)NC2c1ccc(C(=O)O)cc1` (stereo not drawn) [Example 127, 7-amino-3-(4-carboxyphenyl)-6,7-dihydro-3H,5H-pyrido[3,2,1-ij]quinazolinone-1-(2H)-one], the melting point was 232.3 to 238.7 °C. For `COc1ccc(C2NC(=O)c3cccc4c3N2CCC4NC(=O)c2ccc(N(C)C)cc2)cc1` (stereo not drawn) [Example 132, 7-(4-N,N-dimethylamino)benzoylamino-3-(4-methoxyphenyl)-6,7-dihydro-3H,5H-pyrido[3,2,1-ij]quinazoline-1(2H)-one], the melting point was 201.4 to 202.9 °C. Work on `COc1ccc(C2NC(=O)c3cccc4c3N2CCC4NC(=O)CCN2CCCCC2)cc1` (stereo not drawn) [Example 133, 7-[3-(piperidine-1-yl)propanoyl]amino-3-(4-methoxyphenyl)-6,7-dihydro-3H,5H-pyrido[3,2,1-ij]quinazoline-1(2H)-one] yielded a melting point of 186 to 187.2 °C. With `COc1ccc(C2NC(=O)c3cccc4c3N2CCC4NC(=O)C2CCN(C)CC2)cc1` (stereo not drawn) [Example 134, 7-(1-methylpiperidine-4-yl)carbonylamino-3-(4-methoxy-phenyl)-6,7-dihydro-3H,5H-pyrido[3,2,1-ij]quinazoline-1(2H)-one] the melting point was 252.3 to 253.1 °C. With `COc1ccc(C2NC(=O)c3cccc4c3N2CCC4N(C)C)cc1` (stereo not drawn) [Example 135, 7-dimethylamino-3-(4-methoxyphenyl)-6,7-dihydro-3H,5H-pyrido[3,2,1-ij]quinazoline-1(2H)-one] the melting point was 188.2 to 192.4 °C. Work on `COc1ccc(C2NC(=O)c3cccc4c3N2CCC4NC(=O)CN(C)C)cc1` (stereo not drawn) [Example 136, 7-(N,N-dimethylaminoacetyl)amino-3-(4-methoxyphenyl)-6,7-dihydro-3H,5H-pyrido[3,2,1-ij]quinazoline-1(2H)-one] yielded a melting point of 161.4 to 166.6 °C.
